Assay results as given in patent US9663569B2, “Use of blocking agents of bone morphogenic protein (BMP) signalling for the treatment of neuroinflammatory and neurodegenerative diseases” (THE MEDICAL RESEARCH, INFRASTRUCTURE, AND HEALTH SERVICES …, priority 2012, dated 2017).

Test system: SJL female mice with induced RR-EAE
Experiment: RR-EAE clinical score in SJL mice after systemic treatment
Type: in vivo
Experimental: The SJL/EAE mice model was chosen based on its relapsing and remitting (RR) pattern, which resembles the pattern of RR-multiple sclerosis in humans. RR-EAE was induced in SJL female mice (8 weeks old, Harlan Laboratories, Ltd. Israel) by subcutaneous immunization (designated day 0) with proteolipid protein peptide (PLP139-151, BioSight Ltd.) at a concentration of 100 μg/mouse.
In both models the peptides used for EAE induction were emulsified in an equal volume of Complete Freund's Adjuvant (CFA, DIFCO), containing 500 μg Mycobacterium tuberculosis H37RA (MT, DIFCO). In addition, the mice received two consecutive intraperitoneal injections of 300 ng Pertussis toxin (PTX, Sigma-Aldrich) in 0.2 ml PBS. The first injection was given at day 0 and a second injection was given 48 h afterwards.
Day 9 post induction of EAE was chosen for administration of anti-BMP neutralizing antibodies, in order to affect both the onset and the severity of EAE. […], emulsified in 200 μl PBS: anti-human BMP-2/4 (an antibody which recognizes both BMP-2 and BMP-4), anti-human BMP-5, and anti-human BMP-7 mAbs (all anti-BMP neutralizing monoclonal antibodies were obtained from R&D systems). Commercial anti-human BMPs were used based on the high homology (>95%) between human and mouse BMPs. […] Since the blood brain barrier (BBB) is disrupted in the EAE mice by the presence of pertussis toxin, the injected antibodies are present systemically in the blood stream but are also transmitted to the CNS through the disrupted BBB.
Mice treated with corresponding isotype controls (IgG1 and IgG2β, termed herein “IC”) (R&D systems) as well as mice treated with the vehicle PBS alone (termed herein “vehicle”) were used as negative controls (n=12 in each group).
Mice were monitored for symptoms of RR-EAE and were scored as follows: “0” for no disease; “1”, tail paralysis; “2”, hind limb weakness; “3”, hind limb paralysis; “4”, hind limb and forelimb paralysis; “5”, moribund.
[…] Animals were daily monitored for EAE symptoms and scored as described above. […]

[1] = 10 mg/kg i.p. every 12 hr for 5 days from day 9 post immunization

Q: What does the source list for `c1cc(-c2cnn3cc(-c4ccc(OCCN5CCCCC5)cc4)cnc23)ccn1` [dorsomorphin, 6-[4-(2-Piperidin-1-yl-ethoxy)phenyl]-3-pyridin-4-yl-pyrazolo[1,5-a]pyrimidine]?
A: form of the disease during treatment [1]: very mild form of the disease; onset of the first relapse delayed to day [1]: 16 days; mice exhibiting the severe forms of the disease (score 2-5) (10 mg/kg i.p., day 9 to day 13, until day 16 post immunization): no mice
